Assay results from paper PMC11788587, “Validating Low‐Dose Iohexol as a Marker for Glomerular Filtration Rate by In Vitro and In Vivo Studies” (Clinical and Translational Science, 2025).

Legend:
[1] = cited from earlier work
[2] = tested on: human Phase I or Phase II enzymes; design: method as in PMID 32948918; conditions: cited from earlier work
hOCT2 = target: T1, hOCT2 (Homo sapiens, UniProt O15244); test: Substrate assessment: iohexol uptake in 293 cells expressing hOCT2 vs control; assay type: in vitro ADME; conditions: 10 μM iohexol, median (95% CI)
T1 construct: expressed in transfected cells; host or cells: HEK-293 (293) cells, pEBTetD plasmid, doxycycline-induced
T1 sequence (O15244 1-555): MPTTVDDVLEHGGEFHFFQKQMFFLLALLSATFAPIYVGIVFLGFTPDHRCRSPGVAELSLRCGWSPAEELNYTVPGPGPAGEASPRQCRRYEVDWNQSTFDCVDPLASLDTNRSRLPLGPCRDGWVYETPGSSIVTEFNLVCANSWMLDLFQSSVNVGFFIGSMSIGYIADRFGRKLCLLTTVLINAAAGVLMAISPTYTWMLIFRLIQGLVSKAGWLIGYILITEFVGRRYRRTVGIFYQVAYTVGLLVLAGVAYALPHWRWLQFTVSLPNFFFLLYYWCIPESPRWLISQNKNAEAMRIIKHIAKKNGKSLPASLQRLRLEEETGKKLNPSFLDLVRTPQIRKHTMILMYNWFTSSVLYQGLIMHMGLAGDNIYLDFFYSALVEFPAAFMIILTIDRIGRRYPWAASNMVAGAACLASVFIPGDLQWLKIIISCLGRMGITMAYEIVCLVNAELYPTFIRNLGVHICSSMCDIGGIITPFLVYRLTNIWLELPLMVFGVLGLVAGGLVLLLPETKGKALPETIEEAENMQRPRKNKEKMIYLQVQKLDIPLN
Text: We characterized the inhibitory potential of iohexol on major drug transporters recommended by regulatory agencies, which were previously assessed in a clinical transporter phenotyping cocktail study. These transporters include hOAT1, hOAT3, hOCT1, hOCT2, hMATE1, hMATE2K, human organic anion transporter polypeptides (hOATP)1B1, hOATP1B3, and human multidrug resistance protein (hMDR)1. Additionally, we investigated whether iohexol is a substrate for any of the renal transporters among these, including hOAT1/3, hOCT1/2, and hMATE1/2K. Cell‐based uptake assays were used to assess the activities of hOAT1/3, hOCT1/2, hMATE1/2K, and hOATP1B1/1B3. Inside‐out membrane vesicle uptake assays were used to evaluate the activity of hMDR1.
For substrate assessments, iohexol was incubated with stably transfected HEK‐293 cells expressing one of the following transporters: hOAT1, hOAT3, hOCT1, hOCT2, hMATE1, or hMATE2K, as well as with control cells lacking transporter expression. Stably transfected cell lines containing pEBTetD plasmids with wild‐type human transporter cDNAs were generated as previously described. Transporter expression was induced by adding 1 μg/mL doxycycline to the growth medium for at least 20 h. Iohexol would be considered a substrate for these transporters if: (1) the ratio of iohexol uptake in cells expressing the transporter to that in control cells was ≥ 2, and (2) a known inhibitor of the transporter reduced iohexol uptake to ≤ 50% at concentrations ≥ 10 times its inhibition constant or half‐maximal inhibitory concentration.
Uptake assays were performed using stably transfected 293 cells, with or without the expression of one of the following transporters: hOAT1, hOAT3, hOCT1, hOCT2, hMATE1, or hMATE2K, as previously described.^1
For the substrate assessment, cells were incubated with 10 µM iohexol for 10 minutes and 30 minutes for each transporter. Inhibition assays were performed using specific standard substrates for each transporter: 10 µM para-aminohippuric acid (PAH) for hOAT1, 3 µM estrone-3-sulfate (E3S) for hOAT3, 50 µM metformin for hOCT1, 5 µM metformin for hOCT2, and 3 µM 1-methyl-4-phenylpyridinium (MPP+) for hMATE1 and hMATE2K. […]
R version 4.2.1 (R Foundation for Statistical Computing, Vienna, Austria) was used for statistical evaluations and data visualization. The data analysis approach for the in vitro study was detailed by Hsin CH et al..^1 In brief, for transport assays, the initial uptake rate was calculated by normalizing the substrate concentration to both the protein concentration and the incubation time for each dish or well. The transporter-mediated uptake rate (net uptake) was determined by performing an element-wise subtraction of uptake rates from different conditions. […]

Compound: CC(=O)N(CC(O)CO)c1c(I)c(C(=O)NCC(O)CO)c(I)c(C(=O)NCC(O)CO)c1I (centres unmarked) [iohexol]
- Iohexol clearance ([1]; healthy adults, 95% CI 7.08–7.68 L/h, ref 44 Olsson et al.): 7.32 L/h
- Median renal clearance ([1]; healthy adults, interquartile range 6.36–7.50, ref 39 Sterner et al.): 6.78 L/h/1.73 m^2
- Volume of distribution ([1]; healthy volunteers): 0.27 L/kg
- Inhibition of human Phase I or Phase II enzymes [2]: does not inhibit
- Differences in intracellular accumulation (expression on minus off) (hOCT2; 10 minutes): 1.3 (0.007 to 2.6) pmol/mg protein
- Uptake ratio (transporter-expressing vs non-expressing cells) (hOCT2; 10 minutes): 1.1 (1 to 1.2)
- Differences in intracellular accumulation (expression on minus off) (hOCT2; 30 minutes): 1.5 (-1.4 to 2.9) pmol/mg protein
- Uptake ratio (transporter-expressing vs non-expressing cells) (hOCT2; 30 minutes): 1.1 (0.9 to 1.3)
